Test results from ChEMBL document CHEMBL4043309, “Computer-Aided Discovery and Characterization of Novel Ebola Virus Inhibitors” (J Med Chem, 2018).
Calls of active or inactive are those of the source. The calls are words filed in the database; no cut-off is given here.

Columns and labels:
cells = assay type: cell-based, Ebolavirus; details: Orthoebolavirus, HeLa, 4.5 h
in vitro [1] = details: human, hela
in vitro [2] = details: human, hela; remark: listed apart in the source
Ebolavirus = experiment: Antiviral activity against Ebolavirus Mayinga infected in African green monkey Vero E6 cells after 72 hrs by eGFP assay; assay type: functional; details: Orthoebolavirus, Vero C1008, 72 h
[3] = molecular target: Procathepsin L (Homo sapiens) (UniProt P07711); details: at 10 µM
Chain of Procathepsin L (Homo sapiens) (P07711 114-333 limits assumed): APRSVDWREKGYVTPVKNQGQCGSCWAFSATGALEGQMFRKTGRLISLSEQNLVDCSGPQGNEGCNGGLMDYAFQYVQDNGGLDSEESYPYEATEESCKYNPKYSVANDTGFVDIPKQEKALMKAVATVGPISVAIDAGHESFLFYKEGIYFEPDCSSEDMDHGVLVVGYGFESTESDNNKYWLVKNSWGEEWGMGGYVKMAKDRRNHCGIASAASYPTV

[4] = molecular target: Cathepsin B (Homo sapiens) (UniProt P07858); experiment: Inhibition of recombinant cathepsin B (unknown origin) at 10 uM using Ac-RR-AFC as substrate preincubated for 29 mins followed by substrate addition by fluorescence-based assay

| Structure (SMILES) | IC50 (cells) [µM] | selectivity ratio (in vitro [1]) | selectivity ratio (in vitro [2]) | other results |
| --- | --- | --- | --- | --- |
| CCC(=C(c1ccc(O)cc1)c1ccc(OCCN(C)C)cc1)c1ccccc1 | 1.96 | 123 | 123 |  |
| Nc1ncnc2c1c(-c1cccc(OCc3ccccc3)c1)cn2[C@H]1C[C@H](CN2CCCC2)C1 | 3.05 | 13 | 13 | IC50 (Ebolavirus): 1 to 10 µM |
| Cc1[nH]c2c(CN3CC(CO)C(CN4CCCC4)C3)cccc2c1C (stereo unspecified) | 6.09 | 82 | 82 | IC50 (Ebolavirus): 1 to 10 µM |
| Cc1ccc(CN2CCCN(C)C3(CCN(C)CC3)C2)cc1C | 6.83 | 73 | 73 | IC50 (Ebolavirus): 1 to 10 µM |
| CNC1CCC(N(Cc2cccc(-c3ccncc3)c2)C(=O)c2sc3c(F)ccc(F)c3c2Cl)CC1 (stereo unspecified) | 7.67 | 65 | 65 |  |
| CN(C)c1ccccc1CN1CCCN(Cc2ccccc2N(C)C)C1c1ccncc1 | 6.83 | 73 | 73 | inhibition [3]: Active; inhibition [4]: Active |
| COc1cc2nc(N3CCCN(C)CC3)nc(NC3CCN(Cc4ccccc4)CC3)c2cc1OC | 0.966 | 45 | 45 | IC50 (Ebolavirus): 1 to 10 µM |
| CC(C)(C)c1ccc(C(=O)CCCN2CCC(OC(c3ccccc3)c3ccccc3)CC2)cc1 |  |  |  | inhibition [3]: Active |
| CCN(CC)CCCN(c1ccccc1)C1Cc2ccccc2C1 [APRINDINE] | 7.69 |  |  |  |
| COc1cc(Nc2c(C#N)cnc3cc(OCCCN4CCN(C)CC4)c(OC)cc23)c(Cl)cc1Cl [BOSUTINIB] | 3.85 |  |  |  |
| COc1cc2c(Oc3ccc4[nH]c(C)cc4c3F)ncnc2cc1OCCCN1CCCC1 [CEDIRANIB] | 7.67 | 65 | 65 |  |
| COc1ccc2cc1Oc1ccc(cc1)C[C@H]1c3c(cc4c(c3Oc3cc5c(cc3OC)CCN(C)[C@@H]5C2)OCO4)CCN1C [CEPHARANTHINE] | 1.53 |  |  |  |
| CN1[C@@H]2CC[C@H]1C[C@@H](OC1c3ccccc3CCc3ccccc31)C2 [DEPTROPINE] | 6.58 | 76 | 76 | inhibition [3]: Active |
| CCCCc1oc2ccc(NS(C)(=O)=O)cc2c1C(=O)c1ccc(OCCCN(CCCC)CCCC)cc1 [DRONEDARONE] | 2.2 |  |  |  |
| CC/C(=C(\c1ccc(O)cc1)c1ccc(OCCNC)cc1)c1ccccc1 [ENDOXIFEN] | 3.05 | 164 | 164 |  |
| COc1ccc2cc1Oc1ccc(cc1)C[C@H]1c3cc(c(OC)cc3CCN1C)Oc1c(OC)c(OC)cc3c1[C@H](C2)N(C)CC3 [FANCHININ] | 2.16 | 22 | 22 |  |
| COCC(=O)O[C@]1(CCN(C)CCCc2nc3ccccc3[nH]2)CCc2cc(F)ccc2[C@@H]1C(C)C [MIBEFRADIL] | 4.32 |  |  |  |
| CC(=O)N(C)C1(c2ccccc2)CCN(CCC[C@]2(c3ccc(Cl)c(Cl)c3)CCCN(C(=O)c3ccccc3)C2)CC1 [OSANETANT] | 9.65 | 52 | 52 |  |
| CN1CCN(CCCN2c3ccccc3Sc3ccc(S(=O)(=O)N(C)C)cc32)CC1 [THIOPROPERAZINE] | 4.32 |  |  |  |
| CC[C@]1(O)C[C@@H]2CN(CCc3c([nH]c4ccccc34)[C@@](C(=O)OC)(c3cc4c(cc3OC)N(C)[C@H]3[C@@](O)(C(=O)OC)[C@H](OC(C)=O)[C@]5(CC)C=CCN6CC[C@]43[C@@H]65)C2)C1 [VINBLASTINE] |  |  |  | EC50 (cells): 0.048 µM |
| CC[C@]1(O)C[C@H]2CN(CCc3c([nH]c4ccccc34)[C@@](C(=O)OC)(c3cc4c(cc3OC)N(C=O)[C@H]3[C@@](O)(C(=O)OC)[C@H](OC(C)=O)[C@]5(CC)C=CCN6CC[C@]43[C@@H]65)C2)C1 [VINCRISTINE] | 0.141 |  |  |  |
| CC[C@]1(O)C[C@@H]2CN(CCc3c([nH]c4ccccc34)[C@@](C(=O)OC)(c3cc4c(cc3OC)N(C)[C@H]3[C@@](O)(C(N)=O)[C@H](O)[C@]5(CC)C=CCN6CC[C@]43[C@@H]65)C2)C1 [VINDESINE] | 0.272 | 1840 | 1840 |  |
| CCC1=C[C@@H]2CN(C1)Cc1c([nH]c3ccccc13)[C@@](C(=O)OC)(c1cc3c(cc1OC)N(C)[C@H]1[C@@](O)(C(=O)OC)[C@H](OC(C)=O)[C@]4(CC)C=CCN5CC[C@]31[C@@H]54)C2 [VINORELBINE] | 0.066 |  |  |  |
